# Measurements published in patent US10196403B2, “Compounds and compositions and uses thereof” (Sunovion Pharmaceuticals Inc., priority 2016, dated 2019).
# Test system: mice
# Assay: Neuropharmacological Assay (SmartCube)
# Type: in vivo
# Details: for minimal effective dose: Mus musculus, MED = dose having 50% or more total activity in SmartCube, read-out: POTENCY (minimal effective dose, MED); for AD: ADHD (SmartCube probability) / AG: analgesic (SmartCube probability) / AX: anxiolytic (SmartCube probability) / CE: cognitive enhancer (SmartCube probability) / DP: anti-depressant (SmartCube probability) / MS: mood stabilizer (SmartCube probability) / PS: anti-psychotic (SmartCube probability) / SD: sedative hypnotic (SmartCube probability) / UN: uncharacterized CNS activity (SmartCube probability): mice, i.p. 15 min before test, most efficacious dose(s) of 3 doses
# Excerpt: Neuropharmacological Assay (SmartCube™)
# Neurosci. 2011 Sep. 9; 5:103 (doi: 10.3389/fnins.2011.00103) (“Roberds”). As reported in Roberds, because psychiatric diseases generally result from disorders of cell-cell communication, circuitry, intact systems are useful in detecting improvement in disease-relevant endpoints. These endpoints are typically behavioral in nature, often requiring human observation and interpretation. To facilitate testing of multiple compounds for behavioral effects relevant to psychiatric disease, PsychoGenics, Inc. (Tarrytown, N.Y., “PGI”) developed SmartCube™, an automated system in which behaviors of compound-treated mice are captured by digital video and analyzed with computer algorithms. (D. Brunner et al., Drug Discov. Today 2002, 7:S107-S112). PGI Analytical Systems uses data from SmartCube™ to compare the behavioral signature of a test compound to a database of behavioral signatures obtained using a large set of diverse reference compounds. (The composition of the database as well as validation of the method is further described in Roberds). In this way, the neuropharmacological effects of a test compound can be predicted by similarity to major classes of compounds, such as antipsychotics, anxiolytics and antidepressants.
# The SmartCube™ system produces an activity signature indicating the probability that the activity of the test compound at the administered dose matches a given class of neuropharmacological agents. (See, e.g., Roberds, FIGS. 2 and 3). The test compound is simultaneously compared against multiple classes of agents; thus, a separate probability is generated for each behavioral effect measured (e.g., anxiolytic activity, analgesic activity, etc.). In the table below, these probabilities are reported for each behavioral effect measured as follows:
# where LOQ is the limit of quantification.
# Provided compounds were dissolved in a mixture of Pharmasolve™ (N-methyl-2-pyrrolidone), polyethylene glycol and propylene glycol, and were injected i.p. 15 min. before the behavioral test. For each compound, injections were administered at 3 different doses. For each behavioral effect measured, results for the most efficacious dose(s) are presented. In the table below, DP: anti-depressant; AX: anxiolytic; SD: sedative hypnotic; PS: anti-psychotic; MS: mood stabilizer; AD: ADHD; CE: cognitive enhancer; AG: analgesic; UN: uncharacterized CNS activity.
# The potency of many of the compounds in the table was also determined in the SmartCube™ system. Test compounds were routinely examined at dose levels of 0.3, 1, 3 10 and 30 mg per kg (mpk), although the dose range was increased or decreased if necessary to obtain a full dose response curve. A compound's minimal effective dose (MED) is a measure of the compounds potency. The MED was defined as the dose (in mpk) having 50% or more total activity in SmartCube.
SMILES,minimal effective dose,AD: ADHD (SmartCube probability),AG: analgesic (SmartCube probability),AX: anxiolytic (SmartCube probability),CE: cognitive enhancer (SmartCube probability),DP: anti-depressant (SmartCube probability),MS: mood stabilizer (SmartCube probability),PS: anti-psychotic (SmartCube probability),SD: sedative hypnotic (SmartCube probability),UN: uncharacterized CNS activity (SmartCube probability)
"CNC[C@@H]1OC[C@H](F)c2ccccc21 [Example 22, 1-((1R,4R)-4-fluoroisochroman-1-yl)-N-methylmethanamine]",< 3 mg/kg,+ (LOQ≤ + <5%),++ (5%≤ ++ <25%),++ (5%≤ ++ <25%),++ (5%≤ ++ <25%),+++ (25%≤ +++ <50%),++ (5%≤ ++ <25%),+++ (25%≤ +++ <50%),++ (5%≤ ++ <25%),+ (LOQ≤ + <5%)
"CNC[C@H]1OCC(C)(C)c2ccccc21 [Example 23, (S)-1-(4,4-dimethylisochroman-1-yl)-N-methylmethanamine]",3 to 10 mg/kg,+ (LOQ≤ + <5%),++ (5%≤ ++ <25%),++ (5%≤ ++ <25%),++ (5%≤ ++ <25%),++ (5%≤ ++ <25%),+ (LOQ≤ + <5%),+++ (25%≤ +++ <50%),++ (5%≤ ++ <25%),+ (LOQ≤ + <5%)
"CNC[C@@H]1OCC(C)(C)c2ccccc21 [Example 24, (R)-1-(4,4-dimethylisochroman-1-yl)-N-methylmethanamine]",< 3 mg/kg,+ (LOQ≤ + <5%),++ (5%≤ ++ <25%),++ (5%≤ ++ <25%),++ (5%≤ ++ <25%),++ (5%≤ ++ <25%),+ (LOQ≤ + <5%),+++ (25%≤ +++ <50%),++ (5%≤ ++ <25%),+++ (25%≤ +++ <50%)
"CNC[C@H]1OCCc2cccc(F)c21 [Example 25, (S)-1-(8-fluoroisochroman-1-yl)-N-methylmethanamine]",3 to 10 mg/kg,+ (LOQ≤ + <5%),++ (5%≤ ++ <25%),+ (LOQ≤ + <5%),++ (5%≤ ++ <25%),+++ (25%≤ +++ <50%),+ (LOQ≤ + <5%),++ (5%≤ ++ <25%),++ (5%≤ ++ <25%),+ (LOQ≤ + <5%)
"CNC[C@H]1OCC(F)(F)c2ccccc21 [Example 27, (S)-1-(4,4-difluoroisochroman-1-yl)-N-methylmethanamine]",10 to 30 mg/kg,+ (LOQ≤ + <5%),++ (5%≤ ++ <25%),++ (5%≤ ++ <25%),++ (5%≤ ++ <25%),++ (5%≤ ++ <25%),+ (LOQ≤ + <5%),+ (LOQ≤ + <5%),+ (LOQ≤ + <5%),+++ (25%≤ +++ <50%)
"CNC[C@@H]1OCC(F)(F)c2ccccc21 [Example 28, (R)-1-(4,4-difluoroisochroman-1-yl)-N-methylmethanamine]",< 3 mg/kg,+ (LOQ≤ + <5%),++ (5%≤ ++ <25%),++ (5%≤ ++ <25%),++ (5%≤ ++ <25%),++ (5%≤ ++ <25%),+ (LOQ≤ + <5%),+++ (25%≤ +++ <50%),++ (5%≤ ++ <25%),+++ (25%≤ +++ <50%)
"NC[C@@H]1OCCc2c(F)cccc21 [Example 29, (R)-(5-fluoroisochroman-1-yl)methanamine]",3 to 10 mg/kg,+ (LOQ≤ + <5%),++ (5%≤ ++ <25%),++ (5%≤ ++ <25%),++ (5%≤ ++ <25%),++++ (50%≤ ++++),+ (LOQ≤ + <5%),+ (LOQ≤ + <5%),+ (LOQ≤ + <5%),++ (5%≤ ++ <25%)
"CNC[C@H]1OCCc2c(F)ccc(F)c21 [Example 30, (S)-1-(5,8-difluoroisochroman-1-yl)-N-methylmethanamine]",3 to 10 mg/kg,+ (LOQ≤ + <5%),++ (5%≤ ++ <25%),++ (5%≤ ++ <25%),++ (5%≤ ++ <25%),++ (5%≤ ++ <25%),+ (LOQ≤ + <5%),++ (5%≤ ++ <25%),++ (5%≤ ++ <25%),+++ (25%≤ +++ <50%)
"CNC[C@@H]1OCCc2c(F)ccc(F)c21 [Example 31, (R)-1-(5,8-difluoroisochroman-1-yl)-N-methylmethanamine]",< 3 mg/kg,+ (LOQ≤ + <5%),++ (5%≤ ++ <25%),++ (5%≤ ++ <25%),++ (5%≤ ++ <25%),++++ (50%≤ ++++),+ (LOQ≤ + <5%),+ (LOQ≤ + <5%),+ (LOQ≤ + <5%),+ (LOQ≤ + <5%)
"CNC[C@H]1OCCc2c(Cl)cccc21 [Example 32, (S)-1-(5-chloroisochroman-1-yl)-N-methylmethanamine]",10 to 30 mg/kg,+ (LOQ≤ + <5%),+ (LOQ≤ + <5%),++ (5%≤ ++ <25%),++ (5%≤ ++ <25%),++ (5%≤ ++ <25%),+ (LOQ≤ + <5%),++ (5%≤ ++ <25%),+ (LOQ≤ + <5%),+ (LOQ≤ + <5%)
"CNC[C@@H]1OCCc2c(Cl)cccc21 [Example 33, (R)-1-(5-chloroisochroman-1-yl)-N-methylmethanamine]",< 3 mg/kg,+ (LOQ≤ + <5%),++ (5%≤ ++ <25%),++ (5%≤ ++ <25%),++ (5%≤ ++ <25%),++++ (50%≤ ++++),+ (LOQ≤ + <5%),+ (LOQ≤ + <5%),++ (5%≤ ++ <25%),+++ (25%≤ +++ <50%)
